Like-named read-outs stand apart in the source and are kept apart here.

These results are taken from US10265275B2, “Phenolic coatings and methods of making and using same” (Northwestern University, priority 2013, dated 2019).

This series in a line: Potentiometric titration, first pKa. The format is physicochemical. On the procedure: In order to investigate the relationship between coating pH and deprotonation, coating precursor molecules were studied via potentiometric titrations. A solution of tannic acid was made by dissolving ˜1 mg in 2 mL of 100 mM KCl in a glass test tube to perform the titration. The TA and KOH solutions were degassed by aggressively sparging argon for no less than 30 min. Base was titrated in 1.0 μL increments, and the total amount added was 250 μL. If oxygen is purged correctly, the phenolic solution should display little or no change in color throughout the titration. The first pKa was calculated by initially plotting the volume of base added versus pH. The first derivative of this curve was then plotted as a function of pH, and the pKa was calculated by determining the pH associated with any local maxima.

[1] abbreviates: aqueous 100 mM KCl solution, 100 mM KCl, degassed, KOH titration, read-out: First pKa.
The mark [2] stands for this setting: first pKa minus optimal coating pH.

For orientation: pKa means the pH at which an ionisable group is half protonated. `Oc1ccccc1O` [Catechol, catechol]: the pKa under setting [1] worked out at 9.5. Further, the “pKa − pH” value under setting [2] turned out to be 1.5.

On to `Oc1ccc(O)c(O)c1` [HHQ, hydroxyhydroquinone], for which the pKa amounted to 9.1 and the “pKa − pH” value is on record as 3.1.

Turning to `Oc1cccc(O)c1O` [PG, 1,2,3-trihydroxybenzene], the “pKa − pH” value was found to be 2.3. In addition, the pKa under setting [1] came out at 9.3.

In the case of `O=C(OC[C@H]1O[C@@H](OC(=O)c2cc(O)c(O)c(OC(=O)c3cc(O)c(O)c(O)c3)c2)[C@H](OC(=O)c2cc(O)c(O)c(OC(=O)c3cc(O)c(O)c(O)c3)c2)[C@@H](OC(=O)c2cc(O)c(O)c(OC(=O)c3cc(O)c(O)c(O)c3)c2)[C@@H]1OC(=O)c1cc(O)c(O)c(OC(=O)c2cc(O)c(O)c(O)c2)c1)c1cc(O)c(O)c(OC(=O)c2cc(O)c(O)c(O)c2)c1` [Tannic acid, tannic acid], the pKa amounted to 7.7 and the “pKa − pH” value was found to be 0.7.

epigallocatechin-3-gallate [EGCG]: where the note is “100 mM KCl, degassed, KOH titration”, the “First pKa” value turned out to be 8.1. For the same compound, under setting [2], the “pKa − pH” value is recorded as 1.1.
